Test results as given in patent US20240041042A1, “1-(PYRIDYL)-5-AZINYLPYRAZOLE DERIVATIVES, AND THEIR USE FOR CONTROL OF UNDESIRED PLANT GROWTH” (Bayer Aktiengesellschaft, priority 2020, published 2024).
Where two headings read alike, the source gives them in different places.

Assays:
Type in all cases: in vivo
[1] = test system: Verconica persica (VERPE); test: Post-emergence herbicidal action against VERPE
Procedure, shortened: (§1)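 Doses of 320 g/ha or lower, suffixes a, b and c marking different dosages, were applied post-emergence at the one-leaf stage in 600 l/ha water with 0.5% additive. Damage was assessed visually after about 3 weeks in the greenhouse.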

[2] = test system: Amaranthus retroflexus (AMARE); test: Pre-emergence herbicidal action against AMARE; details: visual scoring after about 3 weeks vs untreated controls
Procedure, shortened: (§2)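 Herbicide applied to soil before seedling emergence, at 600 l/ha spray volume with 0.5% additive and rates up to 320 g/ha. Evaluation: visual percentage effect, about 3 weeks later, greenhouse-grown pots compared with untreated ones.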

[3] = test system: Pharbitis purpurea (PHBPU); test: Pre-emergence herbicidal action against PHBPU
Procedure, shortened: as §2

Avena fatua (AVEFA) [4] = test: Post-emergence herbicidal action against AVEFA; details: visual rating about 3 weeks after treatment
Procedure, shortened: as §1

Setaria viridis (SETVI) [5] = test: Post-emergence herbicidal action against SETVI
Procedure, shortened: as §1

Avena fatua (AVEFA) [6] = test: Pre-emergence herbicidal action against AVEFA; details: 320 g/ha, visual scoring after about 3 weeks vs untreated controls
Procedure, shortened: as §2

Viola tricolor (VIOTR) [7] = test: Pre-emergence herbicidal action against VIOTR
Procedure, shortened: as §2

[8] = test system: Polygonum convolvulus (POLCO); test: Post-emergence herbicidal action against POLCO
Procedure, shortened: as §1

Setaria viridis (SETVI) [9] = test: Pre-emergence herbicidal action against SETVI
Procedure, shortened: as §2

[10] = test system: Alopecurus myosuroides (ALOMY); test: Post-emergence herbicidal action against ALOMY; details: visual rating about 3 weeks after treatment vs untreated controls (100% = plants have died, 0% = like control plants)
Procedure, shortened: as §1

Oryza sativa (ORYSA) [11] = details: pre-emergence, 80 g/ha, crop plant compatibility, in comparison to untreated controls
Procedure, shortened: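 Scoring: visual, % of untreated control, about 3 weeks after a pre-emergence application to the soil surface. Application used WP or EC formulations diluted in water with 0.5% additive at 600 l/ha; dosage levels are marked by suffixes a, b and c.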

[12] = test system: Echinochloa crus-galli (ECHCG); test: Post-emergence herbicidal action against ECHCG
Procedure, shortened: as §1

[13] = test system: Polygonum convolvulus (POLCO); test: Pre-emergence herbicidal action against POLCO
Procedure, shortened: as §2

[14] = test system: Verconica persica (VERPE); test: Pre-emergence herbicidal action against VERPE
Procedure, shortened: as §2

Lolium rigidum (LOLRI) [15] = test: Pre-emergence herbicidal action against LOLRI
Procedure, shortened: as §2

[16] = test system: Amaranthus retroflexus (AMARE); test: Post-emergence herbicidal action against AMARE
Procedure, shortened: as §1

[17] = test system: Alopecurus myosuroides (ALOMY); test: Pre-emergence herbicidal action against ALOMY; details: scored visually after about 3 weeks, 100% = plants have died
Procedure, shortened: as §2

[18] = test system: Abutilon theophrasti (ABUTH); test: Post-emergence herbicidal action against ABUTH; details: visual rating about 3 weeks after treatment vs untreated controls (100% = plants have died, 0% = like control plants)
Procedure, shortened: as §1

[19] = test system: Pharbitis purpurea (PHBPU); test: Post-emergence herbicidal action against PHBPU
Procedure, shortened: as §1

Oryza sativa (ORYSA) [20] = details: crop plant compatibility
Procedure, shortened: (§3)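 Percent effect on the crop was judged by eye against untreated controls, where 0% means like control and 100% means dead plants. Plants had been sprayed post-emergence at the one-leaf stage and then kept under optimum greenhouse conditions for about 3 weeks.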

[21] = test system: Matricaria inodora (MATIN); test: Pre-emergence herbicidal action against MATIN
Procedure, shortened: as §2

[22] = test system: Echinochloa crus-galli (ECHCG); test: Pre-emergence herbicidal action against ECHCG
Procedure, shortened: as §2

Viola tricolor (VIOTR) [23] = test: Post-emergence herbicidal action against VIOTR
Procedure, shortened: as §1

Lolium rigidum (LOLRI) [24] = test: Post-emergence herbicidal action against LOLRI
Procedure, shortened: as §1

[25] = test system: Matricaria inodora (MATIN); test: Post-emergence herbicidal action against MATIN; details: dosage 80 g/ha
Procedure, shortened: as §1

Zea mays (ZEAMX) = details: for Post-emergence action against ZEAMX in %: crop plant compatibility, 80 g/ha, effect vs untreated controls
Procedure, shortened: as §3

[26] = 320 g/ha, visual rating about 3 weeks after treatment
[27] = 80 g/ha, effect in comparison to untreated controls

SMILES | Post-emergence action against VERPE in % ([1]; dosage 80 g/ha) [%] | Pre-emergence action against AMARE in % ([2]; 80 g/ha) [%] | Pre-emergence action against AMARE in % ([2]; 320 g/ha) [%] | Pre-emergence action against PHBPU in % ([3]; dosage 320 g/ha) [%] | Pre-emergence action against AVEFA in % (Avena fatua (AVEFA) [6]) [%] | Pre-emergence action against VIOTR in % (Viola tricolor (VIOTR) [7]; 320 g/ha, Viola tricolor) [%] | Pre-emergence action against VIOTR in % (Viola tricolor (VIOTR) [7]; dosage 80 g/ha) [%] | Pre-emergence action against SETVI in % (Setaria viridis (SETVI) [9]; dosage 320 g/ha) [%] | Post-emergence action against ALOMY in % ([10]; 80 g/ha) [%] | Pre-emergence action against ORYSA in % (Oryza sativa (ORYSA) [11]) [%] | Post-emergence action against ECHCG in % ([12]; dosage 80 g/ha) [%] | Pre-emergence action against POLCO in % ([13]; dosage 320 g/ha) [%] | Pre-emergence action against VERPE in % ([14]; dosage 320 g/ha) [%] | Pre-emergence action against LOLRI in % (Lolium rigidum (LOLRI) [15]; dosage 320 g/ha) [%] | Pre-emergence action against ALOMY ([17]; 80 g/ha) [%] | Pre-emergence action against ALOMY ([17]; 320 g/ha) [%] | Post-emergence action against ORYSA in % (Oryza sativa (ORYSA) [20]; [27]) [%] | Pre-emergence action against MATIN in % ([21]; dosage 320 g/ha) [%] | Pre-emergence action against ECHCG in % ([22]; dosage 80 g/ha) [%] | Pre-emergence action against ECHCG in % ([22]; dosage 320 g/ha) [%] | also measured
CCOC(=O)[C@@H](C)Oc1nn(-c2nc(F)ccc2F)c(-c2ccc(F)nc2)c1Br [Example I-336] | 80 | 90 | 100 | 80 | 90 | 100 | 90 | 100 | 90 | 20 | 80 | 90 | 90 | 100 | 80 | 100 | 20 | 90 | 80 | 100 | Post-emergence action against VERPE in % ([1]; 320 g/ha, VERPE): 90%; Post-emergence action against AVEFA in % (Avena fatua (AVEFA) [4]; 80 g/ha): 80%; Post-emergence action against AVEFA in % (Avena fatua (AVEFA) [4]; 320 g/ha): 90%; Post-emergence action against SETVI in % (Setaria viridis (SETVI) [5]; dosage 320 g/ha): 80%; Post-emergence action against POLCO in % ([8]; dosage 320 g/ha): 80%; Post-emergence action against ALOMY in % ([10]; 320 g/ha): 90%; Post-emergence action against ECHCG in % ([12]; dosage 320 g/ha): 80%; Pre-emergence action against POLCO in % ([13]; dosage 80 g/ha): 80%; Pre-emergence action against VERPE in % ([14]; dosage 80 g/ha): 80%; Pre-emergence action against LOLRI in % (Lolium rigidum (LOLRI) [15]; dosage 80 g/ha): 80%; Post-emergence action against AMARE in % [16, 26]: 80%; Post-emergence action against ABUTH in % ([18]; 320 g/ha): 80%; Post-emergence action against PHBPU in % ([19]; dosage 80 g/ha): 90%; Post-emergence action against PHBPU in % ([19]; dosage 320 g/ha): 100%; Pre-emergence action against MATIN in % ([21]; dosage 80 g/ha): 80%; Post-emergence action against VIOTR in % (Viola tricolor (VIOTR) [23]; 320 g/ha): 80%; Post-emergence action against LOLRI in % (Lolium rigidum (LOLRI) [24]; dosage 80 g/ha): 80%; Post-emergence action against LOLRI in % (Lolium rigidum (LOLRI) [24]; dosage 320 g/ha): 80%
COCCOC(=O)[C@@H](C)Oc1nn(-c2ncccc2F)c(-c2ccc(F)nc2)c1Br [Example I-35] | 100 | 100 | 100 | 90 | 100 | 100 | 100 | 100 | 90 | 20 | 90 | 90 | 100 | 100 | 90 | 100 | 0 | 100 | 90 | 100 | Post-emergence action against AVEFA in % (Avena fatua (AVEFA) [4]; 80 g/ha): 100%; Post-emergence action against MATIN in % [25]: 90%; Post-emergence action against SETVI in % (Setaria viridis (SETVI) [5]; dosage 80 g/ha): 100%; Pre-emergence action against SETVI in % (Setaria viridis (SETVI) [9]; dosage 80 g/ha): 100%; Pre-emergence action against LOLRI in % (Lolium rigidum (LOLRI) [15]; dosage 80 g/ha): 90%; Post-emergence action against AMARE in % ([16]; 80 g/ha, visual rating about 3 weeks after treatment vs untreated controls (100% = plants have died, 0% = like control plants)): 100%; Post-emergence action against ABUTH in % ([18]; 80 g/ha): 90%; Post-emergence action against ORYSA in % (Oryza sativa (ORYSA) [20]; 20 g/ha, effect vs untreated controls): 0%; Post-emergence action against ZEAMX in % (crop plant compatibility) (Zea mays (ZEAMX); 20 g/ha, ZEAMX, effect in comparison to untreated controls): 10%; Post-emergence action against ZEAMX in % (Zea mays (ZEAMX)): 10%; Post-emergence action against VIOTR in % (Viola tricolor (VIOTR) [23]; 80 g/ha): 90%; Post-emergence action against LOLRI in % (Lolium rigidum (LOLRI) [24]; dosage 80 g/ha): 90%
O=C(O)COc1nn(-c2nc(F)ccc2F)c(-c2ccc(F)nc2)c1Cl [Example I-337] | 80 | 90 | 90 | 80 | 90 | 100 | 80 | 100 | 90 | 20 | 80 | 90 | 90 | 100 | 80 | 90 | 20 | 90 | 80 | 90 | Post-emergence action against VERPE in % ([1]; 320 g/ha, VERPE): 80%; Pre-emergence action against PHBPU in % ([3]; dosage 80 g/ha): 80%; Post-emergence action against AVEFA in % (Avena fatua (AVEFA) [4]; 320 g/ha): 80%; Post-emergence action against SETVI in % (Setaria viridis (SETVI) [5]; dosage 320 g/ha): 80%; Post-emergence action against POLCO in % ([8]; dosage 80 g/ha): 80%; Post-emergence action against POLCO in % ([8]; dosage 320 g/ha): 80%; Pre-emergence action against SETVI in % (Setaria viridis (SETVI) [9]; dosage 80 g/ha): 90%; Post-emergence action against ALOMY in % ([10]; 320 g/ha): 90%; Post-emergence action against ECHCG in % ([12]; dosage 320 g/ha): 90%; Pre-emergence action against POLCO in % ([13]; dosage 80 g/ha): 80%; Pre-emergence action against VERPE in % ([14]; dosage 80 g/ha): 90%; Post-emergence action against AMARE in % [16, 26]: 80%; Post-emergence action against ABUTH in % ([18]; 80 g/ha): 80%; Post-emergence action against ABUTH in % ([18]; 320 g/ha): 80%; Post-emergence action against PHBPU in % ([19]; dosage 80 g/ha): 90%; Post-emergence action against PHBPU in % ([19]; dosage 320 g/ha): 90%; Post-emergence action against ZEAMX in % (Zea mays (ZEAMX)): 10%; Post-emergence action against VIOTR in % (Viola tricolor (VIOTR) [23]; 80 g/ha): 80%; Post-emergence action against VIOTR in % (Viola tricolor (VIOTR) [23]; 320 g/ha): 80%
